Measured values from ChEMBL document CHEMBL4765314, “Rational design and biological evaluation of gemfibrozil modified Xenopus GLP-1 derivatives as long-acting hypoglycemic agents” (Eur J Med Chem, 2020).
Calls of active or inactive are those of the source. No cut-off for these calls is given here. Starred links: 1 amine or outer side, 2 acyl side, 3 side chain; linkers in the order of their positions; H or OH if unused. Residues, ends and D or L forms follow the SMILES beside them. Groups on a side chain read outwards from the residue. *: point of attachment. X5 = CC(=O)[C@H](CCCCNC(=O)CC[C@H](NC(=O)CCCCCCCCCCNC(=O)COC(=O)C(C)(C)CCCOc1cc(C)ccc1C)C(=O)O)N*; X4 = CC(=O)[C@H](CCCCNC(=O)CC[C@H](NC(=O)COC(=O)C(C)(C)CCCOc1cc(C)ccc1C)C(=O)O)N*; Glycoloyl(O-gemfibrozoyl) = Cc1ccc(C)c(OCCCC(C)(C)C(=O)OCC(=O)*)c1; γGlu = O=C(O)[C@H](CCC(=O)[*:2])N[*:1]; Aun = NCCCCCCCCCCC(=O)O; Ahx = NCCCCCC(=O)O

Columns and labels:
[1] = Stability in Sprague-Dawley rat plasma assessed as half life at 1000 ng/ml measured up to 48 hrs under shaking condition by LC-MS/MS analysis; assay type: ADME, cell-free
[2] = Stability in Sprague-Dawley rat plasma at 1000 ng/ml measured up to 48 hrs under shaking condition by LC-MS/MS analysis; assay type: ADME, cell-free
Mus musculus = assay: Hypoglycemic activity in 12 hrs fasted ICR mouse assessed as reduction in blood glucose level at 25 nmol/kg, ip dosed 30 mins before glucose challenge measured up to 120 mins by OGTT method; assay type: functional, organism-based; conditions: time 150.0 min
[3] = target: Glucagon-like peptide 1 receptor (Homo sapiens, UniProt P43220); assay: Agonist activity at human GLP-1R expressed in HEK293 cells assessed as stimulation of cAMP accumulation incubated for 60 mins by HTRF assay; assay type: functional, cell-based
Sequence of Glucagon-like peptide 1 receptor (P43220 whole entry): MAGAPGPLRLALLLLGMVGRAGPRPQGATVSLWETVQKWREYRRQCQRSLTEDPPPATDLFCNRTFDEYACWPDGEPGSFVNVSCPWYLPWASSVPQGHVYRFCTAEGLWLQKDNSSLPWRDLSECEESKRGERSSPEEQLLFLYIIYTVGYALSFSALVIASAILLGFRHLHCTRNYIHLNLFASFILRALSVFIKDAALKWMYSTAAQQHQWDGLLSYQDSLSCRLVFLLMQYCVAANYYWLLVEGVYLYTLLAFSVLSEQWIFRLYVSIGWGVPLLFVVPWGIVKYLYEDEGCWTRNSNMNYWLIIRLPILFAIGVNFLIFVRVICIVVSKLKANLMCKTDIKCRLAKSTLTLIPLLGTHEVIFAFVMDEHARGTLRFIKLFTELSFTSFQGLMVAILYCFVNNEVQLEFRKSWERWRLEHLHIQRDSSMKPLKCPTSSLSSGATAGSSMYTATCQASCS

| SMILES | half-life at 1000 ng/ml [1] [h] | Stabilty [2] | EC50 [3] [nM] | Activity (Mus musculus) |
| --- | --- | --- | --- | --- |
| CC[C@H](C)[C@H](NC(=O)[C@H](CC(C)C)NC(=O)[C@H](Cc1c[nH]c2ccccc12)NC(=O)[C@H](CCC(=O)O)NC(=O)[C@@H](NC(=O)[C@H](Cc1ccccc1)NC(=O)[C@H](CCC(=O)O)NC(=O)[C@H](CCCCNC(=O)CC[C@H](NC(=O)CCCCCCCCCCNC(=O)COC(=O)C(C)(C)CCCOc1cc(C)ccc1C)C(=O)O)NC(=O)[C@H](C)NC(=O)[C@H](C)NC(=O)[C@H](CCC(=O)O)NC(=O)[C@H](CCC(=O)O)NC(=O)[C@H](CCC(=O)O)NC(=O)[C@H](CC(C)C)NC(=O)[C@H](Cc1ccc(O)cc1)NC(=O)[C@H](CCC(=O)O)NC(=O)[C@@H](NC(=O)[C@@H](NC(=O)[C@H](CC(=O)O)NC(=O)[C@H](CC(N)=O)NC(=O)[C@@H](NC(=O)[C@H](Cc1ccc(O)cc1)NC(=O)[C@@H](NC(=O)CNC(=O)[C@H](CCC(=O)O)NC(=O)CNC(=O)[C@@H](N)Cc1cnc[nH]1)[C@@H](C)O)[C@@H](C)O)C(C)C)[C@@H](C)O)[C@@H](C)CC)C(=O)N[C@@H](CCCCN)C(=O)NCC(=O)N[C@@H](CCCCN)C(=O)O (H-HGEGTYTNDVTEYLEEEAAK([γGlu-Aun-Glycoloyl(O-gemfibrozoyl)])EFIEWLIKGK-OH) | 18.1 | Stable | 0.093 | Active |
| CC[C@H](C)[C@H](NC(=O)[C@H](CC(C)C)NC(=O)[C@H](Cc1c[nH]c2ccccc12)NC(=O)[C@H](CCC(=O)O)NC(=O)[C@@H](NC(=O)[C@H](Cc1ccccc1)NC(=O)[C@H](CCC(=O)O)NC(=O)[C@H](CCCCN)NC(=O)[C@H](C)NC(=O)[C@H](C)NC(=O)[C@H](CCC(=O)O)NC(=O)[C@H](CCC(=O)O)NC(=O)[C@H](CCC(=O)O)NC(=O)[C@H](CC(C)C)NC(=O)[C@H](Cc1ccc(O)cc1)NC(=O)[C@H](CCC(=O)O)NC(=O)[C@@H](NC(=O)[C@@H](NC(=O)[C@H](CC(=O)O)NC(=O)[C@H](CC(N)=O)NC(=O)[C@@H](NC(=O)[C@H](Cc1ccc(O)cc1)NC(=O)[C@@H](NC(=O)CNC(=O)[C@H](CCC(=O)O)NC(=O)CNC(=O)[C@@H](N)Cc1cnc[nH]1)[C@@H](C)O)[C@@H](C)O)C(C)C)[C@@H](C)O)[C@@H](C)CC)C(=O)N[C@@H](CCCCNC(=O)CC[C@H](NC(=O)CCCCCNC(=O)COC(=O)C(C)(C)CCCOc1cc(C)ccc1C)C(=O)O)C(=O)NCC(=O)N[C@@H](CCCCN)C(=O)O (H-HGEGTYTNDVTEYLEEEAAKEFIEWLIK([γGlu-Ahx-Glycoloyl(O-gemfibrozoyl)])GK-OH) | – | Stable | 0.21 | Active |
| CC[C@H](C)[C@H](NC(=O)[C@H](CC(C)C)NC(=O)[C@H](Cc1c[nH]c2ccccc12)NC(=O)[C@H](CCC(=O)O)NC(=O)[C@@H](NC(=O)[C@H](Cc1ccccc1)NC(=O)[C@H](CCC(=O)O)NC(=O)[C@H](CCCCN)NC(=O)[C@H](C)NC(=O)[C@H](C)NC(=O)[C@H](CCC(=O)O)NC(=O)[C@H](CCC(=O)O)NC(=O)[C@H](CCC(=O)O)NC(=O)[C@H](CC(C)C)NC(=O)[C@H](Cc1ccc(O)cc1)NC(=O)[C@H](CCC(=O)O)NC(=O)[C@@H](NC(=O)[C@@H](NC(=O)[C@H](CC(=O)O)NC(=O)[C@H](CC(N)=O)NC(=O)[C@@H](NC(=O)[C@H](Cc1ccc(O)cc1)NC(=O)[C@@H](NC(=O)CNC(=O)[C@H](CCC(=O)O)NC(=O)CNC(=O)[C@@H](N)Cc1cnc[nH]1)[C@@H](C)O)[C@@H](C)O)C(C)C)[C@@H](C)O)[C@@H](C)CC)C(=O)N[C@@H](CCCCNC(=O)CC[C@H](NC(=O)CCCCCCCCCCNC(=O)COC(=O)C(C)(C)CCCOc1cc(C)ccc1C)C(=O)O)C(=O)NCC(=O)N[C@@H](CCCCN)C(=O)O (H-HGEGTYTNDVTEYLEEEAAKEFIEWLIK([γGlu-Aun-Glycoloyl(O-gemfibrozoyl)])GK-OH) | – | Stable | 0.21 | Active |
| CC[C@H](C)[C@H](NC(=O)[C@H](CC(C)C)NC(=O)[C@H](Cc1c[nH]c2ccccc12)NC(=O)[C@H](CCC(=O)O)NC(=O)[C@@H](NC(=O)[C@H](Cc1ccccc1)NC(=O)[C@H](CCC(=O)O)NC(=O)[C@H](CCCCN)NC(=O)[C@H](C)NC(=O)[C@H](C)NC(=O)[C@H](CCC(=O)O)NC(=O)[C@H](CCC(=O)O)NC(=O)[C@H](CCC(=O)O)NC(=O)[C@H](CC(C)C)NC(=O)[C@H](Cc1ccc(O)cc1)NC(=O)[C@H](CCC(=O)O)NC(=O)[C@@H](NC(=O)[C@@H](NC(=O)[C@H](CC(=O)O)NC(=O)[C@H](CC(N)=O)NC(=O)[C@@H](NC(=O)[C@H](Cc1ccc(O)cc1)NC(=O)[C@@H](NC(=O)CNC(=O)[C@H](CCC(=O)O)NC(=O)CNC(=O)[C@@H](N)Cc1cnc[nH]1)[C@@H](C)O)[C@@H](C)O)C(C)C)[C@@H](C)O)[C@@H](C)CC)C(=O)N[C@@H](CCCCN)C(=O)NCC(=O)N[C@@H](CCCCNC(=O)CC[C@H](NC(=O)CCCCCCCCCCNC(=O)COC(=O)C(C)(C)CCCOc1cc(C)ccc1C)C(=O)O)C(C)=O (H-HGEGTYTNDVTEYLEEEAAKEFIEWLIKG-X5) | – | Stable | 0.38 | Active |
| CC[C@H](C)[C@H](NC(=O)[C@H](CC(C)C)NC(=O)[C@H](Cc1c[nH]c2ccccc12)NC(=O)[C@H](CCC(=O)O)NC(=O)[C@@H](NC(=O)[C@H](Cc1ccccc1)NC(=O)[C@H](CCC(=O)O)NC(=O)[C@H](CCCCN)NC(=O)[C@H](C)NC(=O)[C@H](C)NC(=O)[C@H](CCC(=O)O)NC(=O)[C@H](CCC(=O)O)NC(=O)[C@H](CCC(=O)O)NC(=O)[C@H](CC(C)C)NC(=O)[C@H](Cc1ccc(O)cc1)NC(=O)[C@H](CCC(=O)O)NC(=O)[C@@H](NC(=O)[C@@H](NC(=O)[C@H](CC(=O)O)NC(=O)[C@H](CC(N)=O)NC(=O)[C@@H](NC(=O)[C@H](Cc1ccc(O)cc1)NC(=O)[C@@H](NC(=O)CNC(=O)[C@H](CCC(=O)O)NC(=O)CNC(=O)[C@@H](N)Cc1cnc[nH]1)[C@@H](C)O)[C@@H](C)O)C(C)C)[C@@H](C)O)[C@@H](C)CC)C(=O)N[C@@H](CCCCN)C(=O)NCC(=O)N[C@@H](CCCCNC(=O)CC[C@H](NC(=O)CCCCCNC(=O)COC(=O)C(C)(C)CCCOc1cc(C)ccc1C)C(=O)O)C(=O)O (H-HGEGTYTNDVTEYLEEEAAKEFIEWLIKGK([γGlu-Ahx-Glycoloyl(O-gemfibrozoyl)])-OH) | – | Stable | 0.38 | Active |

Now from value to compound, other results behind:

| half-life at 1000 ng/ml [1] [h] | Stabilty [2] | EC50 [3] [nM] | SMILES | Activity (Mus musculus) |
| --- | --- | --- | --- | --- |
| – | Stable | 0.21 | CC[C@H](C)[C@H](NC(=O)[C@H](CC(C)C)NC(=O)[C@H](Cc1c[nH]c2ccccc12)NC(=O)[C@H](CCC(=O)O)NC(=O)[C@@H](NC(=O)[C@H](Cc1ccccc1)NC(=O)[C@H](CCC(=O)O)NC(=O)[C@H](CCCCN)NC(=O)[C@H](C)NC(=O)[C@H](C)NC(=O)[C@H](CCC(=O)O)NC(=O)[C@H](CCC(=O)O)NC(=O)[C@H](CCC(=O)O)NC(=O)[C@H](CC(C)C)NC(=O)[C@H](Cc1ccc(O)cc1)NC(=O)[C@H](CCC(=O)O)NC(=O)[C@@H](NC(=O)[C@@H](NC(=O)[C@H](CC(=O)O)NC(=O)[C@H](CC(N)=O)NC(=O)[C@@H](NC(=O)[C@H](Cc1ccc(O)cc1)NC(=O)[C@@H](NC(=O)CNC(=O)[C@H](CCC(=O)O)NC(=O)CNC(=O)[C@@H](N)Cc1cnc[nH]1)[C@@H](C)O)[C@@H](C)O)C(C)C)[C@@H](C)O)[C@@H](C)CC)C(=O)N[C@@H](CCCCNC(=O)CC[C@H](NC(=O)COC(=O)C(C)(C)CCCOc1cc(C)ccc1C)C(=O)O)C(=O)NCC(=O)N[C@@H](CCCCN)C(=O)O (H-HGEGTYTNDVTEYLEEEAAKEFIEWLIK([γGlu-Glycoloyl(O-gemfibrozoyl)])GK-OH) | Active |
| – | Stable | 0.38 | CC[C@H](C)[C@H](NC(=O)[C@H](CC(C)C)NC(=O)[C@H](Cc1c[nH]c2ccccc12)NC(=O)[C@H](CCC(=O)O)NC(=O)[C@@H](NC(=O)[C@H](Cc1ccccc1)NC(=O)[C@H](CCC(=O)O)NC(=O)[C@H](CCCCN)NC(=O)[C@H](C)NC(=O)[C@H](C)NC(=O)[C@H](CCC(=O)O)NC(=O)[C@H](CCC(=O)O)NC(=O)[C@H](CCC(=O)O)NC(=O)[C@H](CC(C)C)NC(=O)[C@H](Cc1ccc(O)cc1)NC(=O)[C@H](CCC(=O)O)NC(=O)[C@@H](NC(=O)[C@@H](NC(=O)[C@H](CC(=O)O)NC(=O)[C@H](CC(N)=O)NC(=O)[C@@H](NC(=O)[C@H](Cc1ccc(O)cc1)NC(=O)[C@@H](NC(=O)CNC(=O)[C@H](CCC(=O)O)NC(=O)CNC(=O)[C@@H](N)Cc1cnc[nH]1)[C@@H](C)O)[C@@H](C)O)C(C)C)[C@@H](C)O)[C@@H](C)CC)C(=O)N[C@@H](CCCCN)C(=O)NCC(=O)N[C@@H](CCCCNC(=O)CC[C@H](NC(=O)COC(=O)C(C)(C)CCCOc1cc(C)ccc1C)C(=O)O)C(C)=O (H-HGEGTYTNDVTEYLEEEAAKEFIEWLIKG-X4) | Active |
| – | Stable | 0.093 | CC[C@H](C)[C@H](NC(=O)[C@H](CC(C)C)NC(=O)[C@H](Cc1c[nH]c2ccccc12)NC(=O)[C@H](CCC(=O)O)NC(=O)[C@@H](NC(=O)[C@H](Cc1ccccc1)NC(=O)[C@H](CCC(=O)O)NC(=O)[C@H](CCCCNC(=O)CC[C@H](NC(=O)COC(=O)C(C)(C)CCCOc1cc(C)ccc1C)C(=O)O)NC(=O)[C@H](C)NC(=O)[C@H](C)NC(=O)[C@H](CCC(=O)O)NC(=O)[C@H](CCC(=O)O)NC(=O)[C@H](CCC(=O)O)NC(=O)[C@H](CC(C)C)NC(=O)[C@H](Cc1ccc(O)cc1)NC(=O)[C@@H](NC(=O)[C@@H](NC(=O)[C@@H](NC(=O)[C@H](CC(=O)O)NC(=O)[C@H](CC(N)=O)NC(=O)[C@@H](NC(=O)[C@H](Cc1ccc(O)cc1)NC(=O)[C@@H](NC(=O)CNC(=O)[C@H](CCC(=O)O)NC(=O)CNC(=O)[C@@H](N)Cc1cnc[nH]1)[C@@H](C)O)[C@@H](C)O)C(C)C)[C@@H](C)O)C(C)C)[C@@H](C)CC)C(=O)N[C@@H](CCCCN)C(=O)NCC(=O)N[C@@H](CCCCN)C(=O)O (H-HGEGTYTNDVTVYLEEEAAK([γGlu-Glycoloyl(O-gemfibrozoyl)])EFIEWLIKGK-OH) | Active |
